We go through six molecules from US20240294517A1, “2-[3-[1 [(QUINAZOLIN-4-YL)AMINO]ETHYL]PYRAZIN-2-YL]THIAZOLE-5-CARBONITRILE DERIVATIVES AND SIMILAR COMPOUNDS AS PESTICIDES” (SYNGENTA CROP PROTECTION AG, priority 2021, published 2024).

The subject of one data set is Chilo suppressalis. In words: Activity against Chilo suppressalis (striped rice stemborer), artificial diet in 24-well plates. Particulars: 144 h, application rate 200 ppm, L2 larvae, 6 days after infestation. The format is in vivo. As to the method: 24-well microtiter plates with artificial diet were treated with aqueous test solutions prepared from 10′000 ppm DMSO stock solutions by pipetting. After drying, the plates were infested with L2 larvae (6-8 per well). The samples were assessed for mortality, anti-feeding effect, and growth inhibition in comparison to untreated samples 6 days after infestation. Control of Chilo suppressalis by a test sample is given when at least one of the categories mortality, anti-feedant effect, and growth inhibition is higher than the untreated sample.

The subject of a further data set is Diabrotica balteata. In words: Activity against Diabrotica balteata (corn root worm), sprayed maize sprouts. The class given is in vivo. The note with it: 96 h, application rate 200 ppm, L2 larvae, 4 days after infestation, read-out: effect in at least one of the two categories (mortality or growth inhibition). As to the method: Maize sprouts placed onto an agar layer in 24-well microtiter plates were treated with aqueous test solutions prepared from 10′000 ppm DMSO stock solutions by spraying. After drying, the plates were infested with L2 larvae (6 to 10 per well). The samples were assessed for mortality and growth inhibition in comparison to untreated samples 4 days after infestation.
(§1) Activity of compound P5 according to the preparatory examples and of compound P.118 from WO 21/083936 against Plutella xylostella ([…]) and Diabrotica balteata (Example B2) is summarized in Table B9.

Another data set relates to Euschistus heros. In words: Activity against Euschistus heros (neotropical brown stink bug), sprayed soybean leaves. The class given is in vivo. The note with it: 120 h, application rate 200 ppm, N2 nymphs, 5 days after infestation, read-out: effect in at least one of the two categories (mortality or growth inhibition). The method, then: Soybean leaves on agar in 24-well microtiter plates were sprayed with aqueous test solutions prepared from 10′000 ppm DMSO stock solutions. After drying the leaves were infested with N2 nymphs. The samples were assessed for mortality and growth inhibition in comparison to untreated samples 5 days after infestation.

A further data set concerns Plutella xylostella. In words: Activity against Plutella xylostella (diamond back moth), artificial diet. The note with it: 192 h, application rate 200 ppm, eggs, 8 days after infestation, read-out: effect in at least one of the two categories (mortality or growth inhibition). The format is in vivo. As to the method:
24-well microtiter plates with artificial diet were treated with aqueous test solutions prepared from 10′000 ppm DMSO stock solutions by pipetting. After drying, Plutella eggs were pipetted through a plastic stencil onto a gel blotting paper and the plate was closed with it. The samples were assessed for mortality and growth inhibition in comparison to untreated samples 8 days after infestation.
as §1

A further data set concerns Spodoptera littoralis. In words: Activity against Spodoptera littoralis (Egyptian cotton leaf worm), sprayed cotton leaf discs. The note with it: foliar, 72 h, application rate 200 ppm, L1 larvae, 3 days after infestation. The class given is in vivo. The method, then: Cotton leaf discs were placed onto agar in 24-well microtiter plates and sprayed with aqueous test solutions prepared from 10′000 ppm DMSO stock solutions. After drying the leaf discs were infested with five L1 larvae. The samples were assessed for mortality, anti-feeding effect, and growth inhibition in comparison to untreated samples 3 days after infestation. Control of Spodoptera littoralis by a test sample is given when at least one of the categories mortality, anti-feedant effect, and growth inhibition is higher than the untreated sample.

Data set [1] deals with Frankliniella occidentalis. In words: Activity against Frankliniella occidentalis (western flower thrips), sprayed sunflower leaf discs. The format is in vivo. The note with it: foliar, 168 h, application rate 200 ppm, mixed ages, 7 days after infestation. As to the method: Sunflower leaf discs were placed on agar in 24-well microtiter plates and sprayed with aqueous test solutions prepared from […] stock solutions. After drying the leaf discs were infested with a Frankliniella population of mixed ages. The samples were assessed for mortality 7 days after infestation.

For data set [2], the system named is Myzus persicae. In words: Activity against Myzus persicae (green peach aphid), feeding/contact activity. The class given is in vivo. Particulars: 144 h, application rate 200 ppm, mixed ages, 6 days after infestation. The method, then:
Sunflower leaf discs were placed onto agar in a 24-well microtiter plate and sprayed with aqueous test solutions prepared from 10′000 ppm DMSO stock solutions. After drying, the leaf discs were infested with an aphid population of mixed ages. The samples were assessed for mortality 6 days after infestation.

The test system of data set [3] is Myzus persicae. In words: Activity against Myzus persicae (green peach aphid), intrinsic activity. The class given is in vivo. Particulars: 120 h, test rate 12 ppm, 5 days after infestation. As to the method: Test compounds prepared from 10′000 ppm DMSO stock solutions were applied by pipette into 24-well microtiter plates and mixed with sucrose solution. The plates were closed with a stretched Parafilm. A plastic stencil with 24 holes was placed onto the plate and infested pea seedlings were placed directly on the Parafilm. The infested plate was closed with a gel blotting paper and another plastic stencil and then turned upside down. The samples were assessed for mortality 5 days after infestation.

SMILES strings stand for the structures. A value given as a limit tells only on which side of the number the result lay.

For `CC(Nc1nc(Cl)nc2c(Br)cc(C(F)(F)F)cc12)c1nccnc1-c1ncc(Br)s1` (centres unmarked) [P3, 8-bromo-N-[1-[3-(5-bromothiazol-2-yl)pyrazin-2-yl]ethyl]-2-chloro-6-(trifluoromethyl)quinazolin-4-amine], the melting point fell in the range of 197 to 199 °C.
In the case of `C[C@H](Nc1ncnc2c(C(F)(F)F)cc(Cl)cc12)c1ncnn1-c1ncc(C#N)s1` [P10, 2-[5-[(1S)-1-[[6-chloro-8-(trifluoromethyl)quinazolin-4-yl]amino]ethyl]-1,2,4-triazol-1-yl]thiazole-5-carbonitrile], the percent control (mortality, anti-feedant effect or growth inhibition) at 200 ppm with Chilo suppressalis and in the data set on Spodoptera littoralis was at least 80% throughout. In addition, the percent effect (mortality or growth inhibition) at 200 ppm with Diabrotica balteata, in the data set with Euschistus heros and in the data set with Plutella xylostella was at least 80% each time.
As for `C[C@H](Nc1ncnc2c(Cl)cc(I)cc12)c1ncnn1-c1ncc(C#N)s1` [P20, 2-[5-[(1S)-1-[(8-chloro-6-iodo-quinazolin-4-yl)amino]ethyl]-1,2,4-triazol-1-yl]thiazole-5-carbonitrile], the percent control (mortality, anti-feedant effect or growth inhibition) at 200 ppm in the data set with Chilo suppressalis and with Spodoptera littoralis was at least 80% each time. Further, the percent effect (mortality or growth inhibition) at 200 ppm with Diabrotica balteata and with Plutella xylostella was at least 80% each time. Besides, the mortality at 200 ppm in [1] was at least 80%.
For the molecule `C[C@H](Nc1ncnc2c(Br)cc(Br)cc12)c1ncnn1-c1ncc(C#N)s1` [P14, 2-[5-[(1S)-1-[(6,8-dibromoquinazolin-4-yl)amino]ethyl]-1,2,4-triazol-1-yl]thiazole-5-carbonitrile], the percent control (mortality, anti-feedant effect or growth inhibition) at 200 ppm in the data set on Chilo suppressalis and in the data set with Spodoptera littoralis was at least 80% each time. In addition, the percent effect (mortality or growth inhibition) at 200 ppm in the data set with Diabrotica balteata and with Plutella xylostella was at least 80% in each case. Further, in the data set on Myzus persicae [2], the mortality at 200 ppm is at least 80%.
Consider `C[C@@H](c1ncnn1-c1ncc(C#N)s1)N(C)c1ncnc2c(Cl)cc(C(F)(F)F)cc12` [P17, 2-[5-[(1S)-1-[[8-chloro-6-(trifluoromethyl)quinazolin-4-yl]-methyl-amino]ethyl]-1,2,4-triazol-1-yl]thiazole-5-carbonitrile], for which the percent control (mortality, anti-feedant effect or growth inhibition) at 200 ppm with Chilo suppressalis and in the data set on Spodoptera littoralis was at least 80% each time. In addition, the percent effect (mortality or growth inhibition) at 200 ppm in the data set on Diabrotica balteata, in the data set with Euschistus heros and in the data set with Plutella xylostella was at least 80% in each case.
For the molecule `C[C@H](Nc1ncnc2c(Cl)cc(C(F)(F)F)cc12)c1ncnn1-c1ncc(C#N)s1` [P15, 2-[5-[(1S)-1-[[8-chloro-6-(trifluoromethyl)quinazolin-4-yl]amino]ethyl]-1,2,4-triazol-1-yl]thiazole-5-carbonitrile], the percent control (mortality, anti-feedant effect or growth inhibition) at 200 ppm in the data set with Chilo suppressalis and in the data set with Spodoptera littoralis was at least 80% throughout. The percent effect (mortality or growth inhibition) at 200 ppm in the data set on Diabrotica balteata and in the data set on Plutella xylostella was at least 80% in each case. Further, the mortality at 12 ppm with Myzus persicae [3] was at least 80%.
